Measured values from ChEMBL document CHEMBL1157539, “Thousands of chemical starting points for antimalarial lead identification” (Nature, 2010).

Test system: Plasmodium falciparum
Assay: GSK_TCMDC: Inhibition of Plasmodium falciparum 3D7 in whole erythrocytes, using parasite LDH activity as an index of growth.
Assay type: functional, organism-based

| Structure (SMILES) | XC50 (Plasmodium falciparum, 3D7) | XC50 |
| --- | --- | --- |
| CC(Cc1ccc(NC(=O)c2ccc(CC(C)NCc3ccc(Cl)cc3)cc2)cc1)NCCc1cccc(Cl)c1 (stereo unspecified) | 0.45 µM |  |
| COc1ccc(Nc2nc(N3CCCC3)c3ccccc3n2)cc1 | 0.75 µM |  |
| Cc1cc(Nc2ccccc2)nc(NCCOc2ccccc2)n1 | 0.728 µM |  |
| CC(C)COc1ccc(Cl)cc1Cc1ccc(-c2nc3cc(CCN(C)C)ccc3[nH]2)o1 | 0.982 µM |  |
| CSc1sc(NC(=O)Nc2cccc(C(F)(F)F)c2)cc1C#N | 0.912 µM |  |
| CCCc1cc(Cc2cnc(N)nc2N)cc(CCC)c1OCCCCC(=O)OCC | 0.0541 µM |  |
| CN1CCC(N2CCC(Oc3cccc(C(=O)NCCCC4CCCC4)c3)CC2)CC1 | 0.843 µM |  |
| COc1cccc(C2(C)CCN(CCCCNC(=O)c3ccc(NC(=O)c4ccc(Cl)cc4)cc3)CC2)c1 | 0.831 µM |  |
| CCCCNCc1ccc(-c2nc(CN(CCCN3CCN(C)CC3)C(=O)Nc3cccc(Cl)c3)cs2)cc1 | 0.967 µM |  |
| CC1=C(C(=O)Nc2cc3cn[nH]c3cc2F)C(c2ccc(Cl)c(NS(C)(=O)=O)c2)CC(=O)N1 (stereo unspecified) | 0.482 µM |  |
| CC(=O)N(Cc1ccccc1-c1cccc(CNCCc2ccccc2)c1)C1CCN(Cc2ccccc2)CC1 | 1.1 µM |  |
| COC(=O)Cn1c(C2CCN(CC3CCN(C(=O)/C=C/c4ccc(Cl)c(Cl)c4)CC3)CC2)nc2ccccc21 | 1.2 µM |  |
| CCOc1cc(C(=O)N[C@@H](Cc2ccccc2)[C@H](O)CNCc2cc(OC)cc(OC)c2)cc(N2CCCS2(=O)=O)c1 | 0.748 µM |  |
| CCCC(=O)c1cnc2c(Oc3cc(Cl)ncn3)cccc2c1Nc1ccccc1C | 0.336 µM |  |
| Oc1ccc2[nH]c(-c3ccc(F)cc3F)nc2c1CN1CCC(O)(c2ccccc2)CC1 | 0.839 µM |  |
| Cc1c(C)n(Cc2ccccc2)c2ncnc(OC3CCN(CC(=O)NCC4CC4)CC3)c12 | 1.12 µM |  |
| CCN(CC(C)O)C(=O)c1ccc(-c2ccc(-c3nc4cccc(C)c4[nH]3)cc2)cc1 (stereo unspecified) | 0.84 µM |  |
| Cc1ccc(C2(O)CC3CCC(C2)N3C)cc1 (stereo unspecified) | 0.611 µM |  |
| Cc1cc(N2CCCC2)nc(Nc2ccc(NC(=O)Nc3ccccc3)cc2)n1 | 0.165 µM |  |
| COc1ccc(/C=C/C(=O)Nc2ccc(-c3ccncc3)cc2)cc1CCCN(C)C | 0.753 µM |  |
| O=C(NC1CCCc2ccccc21)[C@@H]1CCCN1C(=O)c1ccc(O)c(-c2cccc([N+](=O)[O-])c2)c1 (stereo partly specified) | 0.678 µM |  |
| O=C(c1ccccc1F)N(Cc1ccc(Cl)cc1)c1ccccn1 | 1.02 µM |  |
| CCCCNC(=O)[C@H](CC1CCCCC1)NC(=O)c1ccc(O)c(-c2ccc(Cl)c(Cl)c2)c1 | 0.164 µM |  |
| CN(C)CCNC(=O)c1cccc(-c2cnc3ccc(NCc4ccc(Cl)c(Cl)c4)nn23)c1 | 0.698 µM |  |

| Structure (SMILES) | XC50 (Plasmodium falciparum, 3D7) | XC50 |
| --- | --- | --- |
| CCCCCOc1ccc(C(O)C(CN2CCCCC2)c2ccccc2)cc1 (stereo unspecified) | 0.877 µM |  |
| O=C(Nc1ccc(Cn2nc(Cl)c(N3CCCNCC3)cc2=O)cc1)c1ccc(-c2ccccc2)cc1 | 0.713 µM |  |
| COc1cccc(-c2csc(C(=O)NCC3CCN(Cc4ccc(C(C)(C)C)cc4)C3)c2)c1 (stereo unspecified) | 1.18 µM |  |
| CN(C)Cc1cccc(-c2ccc3ccnc(N)c3c2)c1 | 0.122 µM |  |
| NC(=O)C1CCN(Cc2ccc(-c3cccc(-c4nc5cc(F)ccc5[nH]4)c3)cc2)CC1 | 0.879 µM |  |
| CCCCc1ccc(Cc2cnc3nc(N)nc(N)c3c2C)cc1 | 0.235 µM |  |
| CC(=O)Nc1ccc(CN2CCC(N(C)c3cc(NC(=O)c4cccs4)ccn3)CC2)cc1 | 0.892 µM |  |
| c1cc(CN2CCCCC2)cc(-c2ccc(-c3nc4ccccc4[nH]3)cc2)c1 | 0.889 µM |  |
| CCCCCCn1c(Sc2ccc(C#N)c([N+](=O)[O-])c2)nnc1-c1ccccc1 | 0.772 µM |  |
| FC(F)(F)c1cccc(-c2cc(NCCCn3ccnc3)nc(-c3ccncc3)n2)c1 | 0.105 µM |  |
| COc1ccc2nc(-c3cc(-c4ccc(NC(C)=O)cc4)cnc3N)[nH]c2c1 | 1.24 µM |  |
| CSC1=NC(=Nc2c(C)cccc2C)C2(CCCCC2)N1c1ccccc1Cl | 0.817 µM |  |
| Cc1c(-c2cccc(C(C)(C)NCCCN3CCCCC3)c2)cnc(N)c1C | 0.938 µM |  |
| O=C(NCCc1cccc(Cl)c1Cl)c1ccc(N2CCN(c3ccncc3)CC2)nc1 | 1.06 µM |  |
| c1ccc(CN2CCC(NCc3ccccc3-c3ccc(CNC4CCCC4)cc3)CC2)cc1 | 0.912 µM |  |
| O=C(C1CCCCC1)N1CCOC(CCN2CCC(c3ccccc3)CC2)(c2ccc(Cl)c(Cl)c2)C1 (stereo unspecified) | 0.93 µM |  |
| C=CCc1c(C(=O)NCC23CC4CC(CC(C4)C2)C3)nc2ccccc2c1O | 1.03 µM |  |
| Cc1nc(C)c(-c2ccc(Sc3ccc(Cl)cc3)cc2)c(O)c1Br | 0.138 µM |  |
| O=C(/C=C/c1ccc(Cl)c(Cl)c1)NCCCCCCN1CCCN(C(=O)Nc2ccc(Cl)c(C(F)(F)F)c2)CC1 | 0.565 µM |  |
| CCCCCN1CCCC(CNS(=O)(=O)c2cccc(C(=O)Nc3ccc(C(F)(F)F)cc3)c2)C1 (stereo unspecified) | 0.829 µM |  |
| CC(=O)c1ccc(-c2cccc3c(CC(=O)Nc4ccc5nccc(N6CCN(C)CC6)c5c4)cccc23)cc1 | 0.498 µM |  |
| Oc1cc2c(cc1CN1CCN(Cc3cccs3)CC1)CCC2 | 0.839 µM |  |
| CN1CCN(CC(O)CNC(=O)Nc2ccc(Cl)cc2)CC1 (stereo unspecified) | 0.23 µM |  |
| N#Cc1ccnc(-c2ccc(CNC3CCN(CC4Cn5c(=O)ccc6ccc(F)c4c65)CC3)cc2)c1 (stereo unspecified) | 1.22 µM |  |

| Structure (SMILES) | XC50 (Plasmodium falciparum, 3D7) | XC50 |
| --- | --- | --- |
| c1ccc2c(NCCCCCCCCNc3ccnc4ccccc34)ccnc2c1 | 0.155 µM |  |
| Nc1nc(N)c2cc(Sc3ccc4ccccc4c3)ccc2n1 | 0.0171 µM |  |
| COc1ccc2ncc(F)c(CCN3CCC[C@H](CNCc4ccc5c(n4)NC(=O)CS5)C3)c2n1 | 0.97 µM |  |
| CC(C)N1CCC(N(Cc2ccc(-c3ccc(C(F)(F)F)cc3)cc2)C(=O)Cn2c(CCc3cccc(F)c3F)cc(=O)c3ccccc32)CC1 | 0.85 µM |  |
| CCCc1cc(Cc2cnc(N)nc2N)cc(CCC)c1OCCCCC(=O)OC | 0.0419 µM |  |
| CCN1CCCC1CN(Cc1ccc(-c2ccc(C(F)(F)F)cc2)cc1)C(=O)Cn1c(CCc2cccc(F)c2F)nc(=O)c2ccccc21 (stereo unspecified) | 1.59 µM |  |
| Fc1ccc(C=NN=c2cc[nH]c3ccccc23)cc1 | 0.706 µM |  |
| CCCCOc1ccc(/C=C/c2ccc(-c3c(C)[nH]c(C)c(Cl)c3=O)s2)cc1 | 0.395 µM |  |
| COc1cc2nc(N3CCC(CNC(=O)c4ccc(C(C)=O)cc4)CC3)nc(N)c2cc1OC | 1.12 µM |  |
| Cc1cccc(CN2CCC(CNC(=O)c3cc4c(-c5ccccc5F)nn(C)c4s3)CC2)c1 | 1.09 µM |  |
| COc1ccc(Oc2ccccc2CNCC2CCN(CC3CCCCC3)CC2)cc1 | 0.904 µM |  |
| CCc1cn2c3c(cc(C(=O)N[C@@H](Cc4ccccc4)[C@H](O)CN[C@@H](C)CC)cc13)N(C)S(=O)(=O)CC2 | 0.0745 µM |  |
| CCOc1cc(Br)c(C(C)NC(=O)c2cccc(OC)c2)cc1OCC (stereo unspecified) | 0.168 µM |  |
| CCN(CC)CCn1c2ccccc2c2ccc(C(=O)Nc3ccc4sc(C)nc4c3)cc21 | 1.06 µM |  |
| Cc1nnsc1C(=O)Nc1cccc(-c2csc(-c3nc4ccccc4[nH]3)c2)c1 | 0.351 µM |  |
| Cc1cc(N[C@@H](CC(C)C)C(=O)NCc2cccc(F)c2)nc(NCCc2ccccc2)n1 | 1.08 µM |  |
| CC(C)C(NC(=O)c1c(F)cccc1F)C(=O)Nc1ccc(Cc2nc3ccccc3s2)cc1 (stereo unspecified) | 0.448 µM |  |
| CC[C@H]1CN2CC[C@H]1C[C@H]2[C@H](O)c1cc(-c2ccc(Cl)c(Cl)c2)nc2ccc(OC)cc12 | 0.115 µM |  |
| CC1(C)NC(N)=NC(=N)N1OCCCc1cccc(C(F)(F)F)c1 | 0.0032 µM |  |
| CC(C(=O)NC1CCN(c2ccnc(Nc3ccc(F)cc3)n2)C1)c1ccc(Cl)cc1 (stereo unspecified) | 0.86 µM |  |
| Cc1cc2nc(-c3cc(-c4cccc(NS(C)(=O)=O)c4)cnc3N)[nH]c2cc1C | 0.672 µM |  |
| CCOC(=O)c1cn(CC)c2cc(N(C)CCc3ccc(OC)c(OC)c3)c(F)cc2c1=O | 0.425 µM |  |
| COc1ccc(Cc2c(Cl)nc3nc(N)nc(N)c3c2C)c(OC)c1OC | 0.725 µM |  |
| Cc1cccc2nc(-c3cccc(-c4ccc(NC(=O)Nc5cccc(C#N)c5)cc4)c3)[nH]c12 | 0.187 µM |  |

| Structure (SMILES) | XC50 (Plasmodium falciparum, 3D7) | XC50 |
| --- | --- | --- |
| CC1(C)[C@H]2CC[C@@H](CNc3nc(NCCc4c[nH]cn4)nc(Nc4ccc5c(c4)OCO5)n3)[C@@H]1C2 | 0.537 µM |  |
| COc1ccc2ccc(F)c(CCN3CCC(NCc4cc5c(cn4)OCCO5)CC3)c2n1 | 0.84 µM |  |
| CC1CCCN(C(=O)c2cc(-c3ccccn3)nc3c(Cl)cccc23)C1 (stereo unspecified) | 1.08 µM |  |
| Cc1cc(OCC2CCCO2)c2cc(NC(=O)C(=O)Nc3ccc4nc(C)cc(OCC5CCCO5)c4c3)ccc2n1 (stereo unspecified) | 0.804 µM |  |
| Cc1ccc2nc(C)n(C3CCN(C(=O)Cc4ccc(F)c(F)c4)CC3)c2c1 | 0.474 µM |  |
| CN(CC1CCC(NC(=O)/C=C/c2ccc(Cl)c(Cl)c2)CC1)C1CCC(c2c[nH]c3ccccc23)CC1 (stereo unspecified) | 0.837 µM |  |
| Cc1ccc2nc(C)cc(Nc3ccccc3O)c2c1 | 0.791 µM |  |
| CCCCCN1CCCN(Cc2cccc(NC(=O)c3ccc4ccccc4c3)c2)CC1 | 1.22 µM |  |
| COc1ccc(-c2cnc3ccc(N4CCCC4)nn23)cc1OC | 0.772 µM |  |
| CC1CN(Cc2cccc(F)c2)CCN1c1ccc(NC(=O)c2cccs2)cc1 (stereo unspecified) | 0.448 µM |  |
| CCOC(=O)C(C)(C)Oc1ccc(C(=C2CC(C)(C)CC(C)(C)C2)c2ccc(O)cc2)cc1 | 1.13 µM |  |
| CC1(C)N=C(N)N=C(N)N1c1ccc(Br)cc1 | 0.0092 µM |  |
| CCNc1cc(C(=O)N[C@@H](Cc2ccccc2)[C@H](O)CN[C@H]2CCc3ccccc32)cc(N2CCCC2=O)c1 | 0.295 µM |  |
| CCn1c(Cc2ccccc2)nnc1SCC(=O)N1c2ccccc2Sc2ccccc21 | 0.588 µM |  |
| O=C(/C=C/c1ccc2ccccc2c1)NC1CCC(CN2CCC(c3c[nH]c4ccccc34)CC2)CC1 (stereo unspecified) | 0.727 µM |  |
| CN1CCN(CC(=O)Nc2cccc(-c3ccc(-c4nc5cc(F)ccc5[nH]4)cc3)c2)CC1 | 0.703 µM |  |
| C=CCN(c1ccc(OC)cc1)S(=O)(=O)c1ccc(Cl)c(C(=O)Nc2cccc(C#N)c2)c1 | 0.577 µM |  |
| COc1ccc(C[C@H](N)C(=O)N[C@H]2[C@@H](O)[C@H](n3cnc4c(N(C)C)ncnc43)O[C@@H]2CO)cc1 [PUROMYCIN] |  | 0.174 µM |
| CN(C)CCCn1c(C(=O)OC(c2ccccc2)c2ccccc2)cc2cc(OCc3ccccc3)ccc21 | 0.201 µM |  |
| O=C(/C=C/c1ccc(Cl)c(Cl)c1)NCCCCCN1CCC(CCNC(=O)c2snnc2-c2ccccc2)CC1 | 0.822 µM |  |
| COc1ccc(Nc2ncc3c(-c4cccc(NC(=O)Cc5ccc(F)cc5)c4)c[nH]c3n2)cc1OC | 0.594 µM |  |
| Cc1ccc2[nH]c(-c3cc(-c4ccc(OCc5ccccc5)cc4)cnc3N)nc2c1 | 1.68 µM |  |
| Cc1cc(C)cc(OCC(O)CN(Cc2cc(Cl)cc(Cl)c2)C(=O)Nc2ccccc2Cl)c1 (stereo unspecified) | 0.944 µM |  |
| NS(=O)(=O)c1ccc(CNc2ccc3ncc(-c4ccc(Cl)cc4)n3n2)cc1 | 0.284 µM |  |
